Patent US11267812B2 (Mirati Therapeutics, Inc., priority 2016, dated 2022)
Where two headings read alike, the source gives them in different places.

Tests used:
[1] = biological target: KRas G12C (Homo sapiens, UniProt P01116, C118S/C51S/C80L/G12C); test: KRas G12C Modification Assay (LCMS detection of covalent adduct); type: binding; details: 5 μM compound, 3 hours
Experimental: A 10 μL aliquot of each protein solution was then transferred to a 384 well microtiter plate. Initial compound stocks were generated at fifty times their desired final assay concentration in DMSO.
Exemplary compounds of Formula (I) were diluted 25-fold into K-Ras Assay Buffer to a final of two times their final concentration. A 10 μL aliquot of each diluted compound solution was then added to each of the protein solutions in the microtiter plate to initiate reaction. […] At each time point, the reactions were quenched with 20 μL of a 25 mM acetic acid solution. […] Once all reactions were quenched, the plates were heat sealed and the samples were injected into a LC/MS system for data acquisition.
Samples were injected in their liquid phase onto a C-3 reverse phase column to remove assay buffer and prepare the samples for mass spectrometer. The proteins were eluted from the column using an acetonitrile gradient and fed directly into the mass analyzer. Initial raw data analysis took place in Agilent MassHunter software immediately post data acquisition.
Raw data analysis of the intact protein was exclusively a deconvolution of the multiple charge states of each protein in solution using a maximum entropy deconvolution provided in Mass Hunter. To minimize complexity, only the data over limited mass ranges were considered for analysis, with a minimum of one Dalton mass step intervals. The heights of all masses identified during raw data analysis were exported to be further analyzed in Spotfire® data analysis software.
Final data analysis was a multistep process in the Spotfire® data analysis software package. Briefly, each protein mass was calculated as a percent of the total signal of that sample, that percentage was then normalized to the percentage of signal of the protein in the absence of reactive compounds. Those normalized signals were reported as normalized percent of control (POC). […] Key: “A”≤25% POC; “B”>25% POC≤50% POC; “C”>50% POC and ND=not determined.

[2] = tested on: Phospho-ERK in NCI-H358 cells expressing KRas G12C; test: Cellular inhibition of KRas G12C by Phospho-ERK measurement in NCI-H358 cells; type: cell-based; details: Homo sapiens, read-out: IC50 (pERK(Thr202/Tyr204) normalized with GAPDH)
Method in brief: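 After 8–12 h attachment, NCI-H358 cells were treated with compounds for 3 h (0.5% DMSO final), fixed, methanol-permeabilized and immunostained. pERK(Thr202/Tyr204) was read by infrared imaging and normalized to GAPDH as percent of DMSO control. IC50 came from a 4-parameter fit.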

[3] = NCI-H358 cells, 3 hours compound treatment

Row | POC (normalized percent of control, KRas G12C modification) [1] | Compound | IC50 [2, 3] [nM] | IC50 ([2]; NCI-H358, 3 h) [nM]
1 | C (“C”>50% POC) | C=CC(=O)N1CCN(c2nc(OC[C@@H]3C[C@@H](F)CN3C)nc3c2CCN(c2cccc4ccccc24)C3)CC1CC#N (stereo partly drawn) [Example 220, 2-(1-acryloyl-4-(2-(((2S,4R)-4-fluoro-1-methylpyrrolidin-2-yl)methoxy)-7-(naphthalen-1-yl)-5,6,7,8-tetrahydropyrido[3,4-d]pyrimidin-4-yl)piperazin-2-yl)acetonitrile] | 1 to 1000 | –
2 | C (“C”>50% POC) | C=CC(=O)N1CCN(c2nc(OCCCO)nc3c2CCN(c2cccc4ccccc24)C3)CC1CC#N (centres unmarked) [Example 231, 2-(1-acryloyl-4-(2-(3-hydroxypropoxy)-7-(naphthalen-1-yl)-5,6,7,8-tetrahydropyrido[3,4-d]pyrimidin-4-yl)piperazin-2-yl)acetonitrile] | 1 to 1000 | –
3 | C (“C”>50% POC) | C=CC(=O)N1CCN(c2nc(OC[C@@H]3CCCN3C)nc3c2CCN(c2cccc4ccncc24)C3)CC1CC#N (stereo partly drawn) [Example 244, 2-[4-[7-(8-isoquinolyl)-2-[[(2S)-1-methylpyrrolidin-2-yl]methoxy]-6,8-dihydro-5H-pyrido[3,4-d]pyrimidin-4-yl]-1-prop-2-enoyl-piperazin-2-yl]acetonitrile] | 1 to 1000 | –
4 | C (“C”>50% POC) | C=CC(=O)N1CCN(c2nc(OC[C@@H]3CCCN3C)nc3c2CCN(c2cccc4ccc(C)cc24)C3)CC1CC#N (stereo partly drawn) [Example 245, 2-[4-[7-(7-methyl-1-naphthyl)-2-[[(2S)-1-methylpyrrolidin-2-yl]methoxy]-6,8-dihydro-5H-pyrido[3,4-d]pyrimidin-4-yl]-1-prop-2-enoyl-piperazin-2-yl]acetonitrile] | 1 to 1000 | –
5 | C (“C”>50% POC) | C=CC(=O)N1CCN(c2nc(OC[C@@H]3CCCN3C)nc3c2CCN(c2c(F)c(O)cc4ccccc24)C3)CC1 [Example 249, 1-[4-[7-(2-fluoro-3-hydroxy-1-naphthyl)-2-[[(2S)-1-methylpyrrolidin-2-yl]methoxy]-6,8-dihydro-5H-pyrido[3,4-d]pyrimidin-4-yl]piperazin-1-yl]prop-2-en-1-one] | 1 to 1000 | –
6 | C (“C”>50% POC) | C=CC(=O)N1CCN(c2nc(OC[C@@H]3CCCN3CC3CC3)nc3c2CCN(c2cccc4ccccc24)C3)CC1CC#N (stereo partly drawn) [Example 257, 2-(1-acryloyl-4-(2-(((S)-1-(cyclopropylmethyl)pyrrolidin-2-yl)methoxy)-7-(naphthalen-1-yl)-5,6,7,8-tetrahydropyrido[3,4-d]pyrimidin-4-yl)piperazin-2-yl)acetonitrile] | 1 to 1000 | –

Row | Compound | POC (normalized percent of control, KRas G12C modification) [1] | IC50 [2, 3] [nM] | IC50 ([2]; NCI-H358, 3 h) [nM]
7 | C=CC(=O)N1CCN(c2nc(OC[C@@H]3CCCN3C)nc3c2CCN(c2cccc4ccccc24)C3)C[C@@H]1CC#N [Example 234, 2-((S)-1-acryloyl-4-(2-(((S)-1-methylpyrrolidin-2-yl)methoxy)-7-(naphthalen-1-yl)-5,6,7,8-tetrahydropyrido[3,4-d]pyrimidin-4-yl)piperazin-2-yl)acetonitrile] | C (“C”>50% POC) | – | 1 to 1000
8 | CC#CC(=O)N1CCN(c2nc(OC[C@@H]3CCCN3C)nc3c2CCN(c2cccc4ccccc24)C3)CC1CC#N (stereo partly drawn) [Example 242, 2-(1-(but-2-ynoyl)-4-(2-(((S)-1-methylpyrrolidin-2-yl)methoxy)-7-(naphthalen-1-yl)-5,6,7,8-tetrahydropyrido[3,4-d]pyrimidin-4-yl)piperazin-2-yl)acetonitrile] | C (“C”>50% POC) | – | 1 to 1000
9 | C=CC(=O)N1CCN(c2nc(OC[C@]3(C)CCCN3C)nc3c2CCN(c2cccc4ccccc24)C3)CC1CC#N (stereo partly drawn) [Example 251, 2-(1-acryloyl-4-(2-(((S)-1,2-dimethylpyrrolidin-2-yl)methoxy)-7-(naphthalen-1-yl)-5,6,7,8-tetrahydropyrido[3,4-d]pyrimidin-4-yl)piperazin-2-yl)acetonitrile] | C (“C”>50% POC) | 1 to 1000 | –
10 | C=CC(=O)N1CCN(c2nc(OC[C@H]3CCCN3C)nc3c2CCN(c2cccc4ccccc24)C3)C[C@@H]1CC#N [Example 267, 2-((S)-1-acryloyl-4-(2-(((R)-1-methylpyrrolidin-2-yl)methoxy)-7-(naphthalen-1-yl)-5,6,7,8-tetrahydropyrido[3,4-d]pyrimidin-4-yl)piperazin-2-yl)acetonitrile] | C (“C”>50% POC) | – | 1 to 1000
